Test results: PubChem BioAssay AID1919017 (Molecular Pharmacology Branch, DTP, NCI, 2023)
“And” between values parts separate entries of the source, which are not always exact repeats. Identical values can stand only once.

Tested on: SW1271 complex spheroids with HUVEC/MSC, growth, % test/control
Assay: Anticancer human tumor SW1271 cell line growth inhibition [AhR];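 further: spheroids exposed to agents for 7 days before readout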
Settings: for viability, T/C: stronger effect = lower value
In short: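 Spheroids combined tumor cells with HUVEC endothelial cells and human MSCs as stroma. AhR antagonists were paired with standard or investigational drugs, each dosed in half-log steps down from near clinical Cmax, or from 10 microM where Cmax was unknown.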

[1] = curve of first compound, second compound 0.1 µM
[2] = curve of first compound, second compound 0.316 µM
[3] = curve of first compound, second compound 1 µM
[4] = curve of first compound, second compound 3.16 µM
[5] = curve of first compound, second compound 10 µM
[6] = second compound 0.1 µM, first compound 0.00949 µM
[7] = second compound 0.1 µM, first compound 0.03 µM
[8] = second compound 0.1 µM, first compound 0.0949 µM
[9] = second compound 0.1 µM, first compound 0.3 µM
[10] = second compound 0.1 µM, first compound 0.949 µM
[11] = second compound 0.1 µM, first compound 3 µM
[12] = second compound 0.316 µM, first compound 0.00949 µM
[13] = second compound 0.316 µM, first compound 0.03 µM
[14] = second compound 0.316 µM, first compound 0.0949 µM
[15] = second compound 0.316 µM, first compound 0.3 µM
[16] = second compound 0.316 µM, first compound 0.949 µM
[17] = second compound 0.316 µM, first compound 3 µM
[18] = second compound 1 µM, first compound 0.00949 µM
[19] = second compound 1 µM, first compound 0.03 µM
[20] = second compound 1 µM, first compound 0.0949 µM
[21] = second compound 1 µM, first compound 0.3 µM
[22] = second compound 1 µM, first compound 0.949 µM
[23] = second compound 1 µM, first compound 3 µM
[24] = second compound 3.16 µM, first compound 0.00949 µM
[25] = second compound 3.16 µM, first compound 0.03 µM
[26] = second compound 3.16 µM, first compound 0.0949 µM
[27] = second compound 3.16 µM, first compound 0.3 µM
[28] = second compound 3.16 µM, first compound 0.949 µM
[29] = second compound 3.16 µM, first compound 3 µM
[30] = second compound 10 µM, first compound 0.00949 µM
[31] = second compound 10 µM, first compound 0.03 µM
[32] = second compound 10 µM, first compound 0.0949 µM
[33] = second compound 10 µM, first compound 0.3 µM
[34] = second compound 10 µM, first compound 0.949 µM
[35] = second compound 10 µM, first compound 3 µM
[36] = second compound 0.1 µM, first compound 0.0316 µM
[37] = second compound 0.1 µM, first compound 0.1 µM
[38] = second compound 0.1 µM, first compound 0.316 µM
[39] = second compound 0.1 µM, first compound 1 µM
[40] = second compound 0.1 µM, first compound 3.16 µM
[41] = second compound 0.1 µM, first compound 10 µM
[42] = second compound 0.316 µM, first compound 0.0316 µM
[43] = second compound 0.316 µM, first compound 0.1 µM
[44] = second compound 0.316 µM, first compound 0.316 µM
[45] = second compound 0.316 µM, first compound 1 µM
[46] = second compound 0.316 µM, first compound 3.16 µM
[47] = second compound 0.316 µM, first compound 10 µM
[48] = second compound 1 µM, first compound 0.0316 µM
[49] = second compound 1 µM, first compound 0.1 µM
[50] = second compound 1 µM, first compound 0.316 µM
[51] = second compound 1 µM, first compound 1 µM
[52] = second compound 1 µM, first compound 3.16 µM
[53] = second compound 1 µM, first compound 10 µM
[54] = second compound 3.16 µM, first compound 0.0316 µM
[55] = second compound 3.16 µM, first compound 0.1 µM
[56] = second compound 3.16 µM, first compound 0.316 µM
[57] = second compound 3.16 µM, first compound 1 µM
[58] = second compound 3.16 µM, first compound 3.16 µM
[59] = second compound 3.16 µM, first compound 10 µM
[60] = second compound 10 µM, first compound 0.0316 µM
[61] = second compound 10 µM, first compound 0.1 µM
[62] = second compound 10 µM, first compound 0.316 µM
[63] = second compound 10 µM, first compound 1 µM
[64] = second compound 10 µM, first compound 3.16 µM
[65] = second compound 10 µM, first compound 10 µM

O=C(C=Cn1cnc(-c2cc(C(F)(F)F)cc(C(F)(F)F)c2)n1)NNc1cnccn1 + Cc1ccccc1N=Nc1ccc(NC(=O)c2ccnn2C)c(C)c1
IC50 [1]: 2020 nM
IC50 [2]: 1390 nM
IC50 [3]: 2470 nM
IC50 [4]: > 3000 nM
IC50 [5]: > 3000 nM
viability, T/C [6]: 87%
viability, T/C [7]: 111%
viability, T/C [8]: 86.1%
viability, T/C [9]: 64.5%
viability, T/C [10]: 54.1%
viability, T/C [11]: 46.7%
viability, T/C [12]: 78.9%
viability, T/C [13]: 86.2%
viability, T/C [14]: 84%
viability, T/C [15]: 64.8%
viability, T/C [16]: 56%
viability, T/C [17]: 42.8%
viability, T/C [18]: 111%
viability, T/C [19]: 85.7%
viability, T/C [20]: 79%
viability, T/C [21]: 79.2%
viability, T/C [22]: 59.4%
viability, T/C [23]: 45.8%
viability, T/C [24]: 109%
viability, T/C [25]: 95.6%
viability, T/C [26]: 99.7%
viability, T/C [27]: 61.4%
viability, T/C [28]: 64.9%
viability, T/C [29]: 49%
viability, T/C [30]: 94.8%
viability, T/C [31]: 93%
viability, T/C [32]: 107%
viability, T/C [33]: 71.2%
viability, T/C [34]: 61.4%
viability, T/C [35]: 45.7%

CC1(C)CCC(CN2CCN(c3ccc(C(=O)NS(=O)(=O)c4ccc(NCC5CCOCC5)c([N+](=O)[O-])c4)c(Oc4cnc5[nH]ccc5c4)c3)CC2)=C(c2ccc(Cl)cc2)C1
viability, T/C (compound 0.0316 µM): 93.6% and 94.9% and 90.9%
viability, T/C (compound 0.1 µM): 107% and 101% and 97.1%
viability, T/C (compound 0.316 µM): 104% and 75% and 108%
viability, T/C (compound 1 µM): 92.9% and 102% and 94.2%
viability, T/C (compound 3.16 µM): 101% and 110% and 105%
viability, T/C (compound 10 µM): 88% and 72.9% and 74.4%
IC50 (curve of compound): > 10000 nM

CCN(c1cc(-c2ccc(CN3CCOCC3)cc2)cc(C(=O)NCc2c(C)cc(C)[nH]c2=O)c1C)C1CCOCC1 + Cc1cncc(-c2nc(NCCc3c[nH]c4ccccc34)c3ncn(C(C)C)c3n2)c1
IC50 [1]: > 3000 nM
IC50 [2]: > 3000 nM
IC50 [3]: > 3000 nM
IC50 [4]: > 3000 nM
IC50 [5]: < 9.49 nM
viability, T/C [6]: 81%
viability, T/C [7]: 100%
viability, T/C [8]: 108%
viability, T/C [9]: 97.5%
viability, T/C [10]: 99.7%
viability, T/C [11]: 118%
viability, T/C [12]: 99%
viability, T/C [13]: 105%
viability, T/C [14]: 103%
viability, T/C [15]: 124%
viability, T/C [16]: 106%
viability, T/C [17]: 115%
viability, T/C [18]: 94.6%
viability, T/C [19]: 112%
viability, T/C [20]: 118%
viability, T/C [21]: 94.1%
viability, T/C [22]: 106%
viability, T/C [23]: 110%
viability, T/C [24]: 101%
viability, T/C [25]: 109%
viability, T/C [26]: 97%
viability, T/C [27]: 87.9%
viability, T/C [28]: 96%
viability, T/C [29]: 91.2%
viability, T/C [30]: 48.8%
viability, T/C [31]: 46.5%
viability, T/C [32]: 45.2%
viability, T/C [33]: 38.3%
viability, T/C [34]: 27.5%
viability, T/C [35]: 6.84%

COc1cc(C2c3cc4c(cc3C(OC3OC5COC(C)OC5C(O)C3O)C3COC(=O)C23)OCO4)cc(OC)c1O (configuration not stated) + Cc1ccccc1N=Nc1ccc(NC(=O)c2ccnn2C)c(C)c1
IC50 [1]: 266 nM
IC50 [2]: 267 nM
IC50 [3]: 419 nM
IC50 [4]: 1580 nM
IC50 [5]: 1020 nM
viability, T/C [36]: 75.4%
viability, T/C [37]: 58.1%
viability, T/C [38]: 44.1%
viability, T/C [39]: 50.4%
viability, T/C [40]: 46.9%
viability, T/C [41]: 45.6%
viability, T/C [42]: 54.1%
viability, T/C [43]: 53.9%
viability, T/C [44]: 51.9%
viability, T/C [45]: 46.1%
viability, T/C [46]: 40.4%
viability, T/C [47]: 44.7%
viability, T/C [48]: 88.8%
viability, T/C [49]: 67.5%
viability, T/C [50]: 49.6%
viability, T/C [51]: 44.1%
viability, T/C [52]: 47.4%
viability, T/C [53]: 35.3%
viability, T/C [54]: 66.8%
viability, T/C [55]: 80.4%
viability, T/C [56]: 53.1%
viability, T/C [57]: 49.4%
viability, T/C [58]: 51.2%
viability, T/C [59]: 34%
viability, T/C [60]: 62%
viability, T/C [61]: 61.7%
viability, T/C [62]: 54%
viability, T/C [63]: 50.2%
viability, T/C [64]: 43.8%
viability, T/C [65]: 37.2%

CC1COCCN1c1cc(C2(S(C)(=N)=O)CC2)nc(-c2ccnc3[nH]ccc23)n1 (configuration not stated) + CC(CO)NC(=O)c1cc(-c2ccc(Cl)cc2)nn(-c2cnn(C)c2)c1=O
IC50 [1]: > 10000 nM
IC50 [2]: > 10000 nM
IC50 [3]: > 10000 nM
IC50 [4]: 8830 nM
IC50 [5]: > 10000 nM
viability, T/C [36]: 114%
viability, T/C [37]: 92.9%
viability, T/C [38]: 77.6%
viability, T/C [39]: 88.9%
viability, T/C [40]: 72.7%
viability, T/C [41]: 59.9%
viability, T/C [42]: 91.3%
viability, T/C [43]: 96.7%
viability, T/C [44]: 90.3%
viability, T/C [45]: 73.2%
viability, T/C [46]: 56.1%
viability, T/C [47]: 50.9%
viability, T/C [48]: 80.7%
viability, T/C [49]: 100%
viability, T/C [50]: 98.5%
viability, T/C [51]: 77%
viability, T/C [52]: 68.3%
viability, T/C [53]: 57.1%
viability, T/C [54]: 98.3%
viability, T/C [55]: 83.4%
viability, T/C [56]: 86.4%
viability, T/C [57]: 73.3%
viability, T/C [58]: 61.1%
viability, T/C [59]: 48.5%
viability, T/C [60]: 80%
viability, T/C [61]: 67.6%
viability, T/C [62]: 72%
viability, T/C [63]: 70.6%
viability, T/C [64]: 69.2%
viability, T/C [65]: 62.9%
